Data set [1] deals with KB (oral squamous cell carcinoma). As to the kind of experiment: sulforhodamine B cell cytotoxicity assay, KB. Format: cell-based. Particulars: Homo sapiens; Table 2; SRB assay, 48 h of exposure. Here is the method: (§1) The human cancer cell lines—KB (oral squamous cell carcinoma). C33A (cervical carcinoma), MCF-7 (breast adenocarcinoma), A549 (lung carcinoma) and mouse embryo fibroblast (NIH3T3) were obtained from American Type Culture Collection (ATCC), USA. These cells were grown in recommended media supplemented with 10% FBS, 50 μg/mL gentamycin and 2.5 μg/mL amphotericin B in a 5% CO2 humidified atmosphere at 37° C. Cells below 15 passage level were used for this study. A colorimetric sulforhodamine B assay was used for the measurement of cell cytotoxicity. 1×10^4 cells (in 180 μL) were added to each well of 96-well plate and incubated overnight to allow for cell attachment. Cells were then treated with serial two-fold dilutions of test compounds (100 to 1.6 μM) and untreated cells receiving the same volume of medium served as control. After 48 h of exposure, cells were fixed with ice-cold 50% TCA, stained with 0.4% (w/v) SRB in 1% acetic acid, washed and air dried. Bound dye was dissolved in 150 μL of 10 mM tris base. The plates were read at 540 nm absorbance on plate reader (Polarstar Galaxy, BMG, Germany). The cytotoxic effects of compounds were calculated as % inhibition in cell growth as per the formula […].

Data set [2] has as its system mouse embryo fibroblast (NIH3T3). As to the kind of experiment: sulforhodamine B cell cytotoxicity assay, NIH3T3 non-cancer cells. Format: cell-based. The note with it: 48 h of exposure. How it is done: as §1
Another data set has as its system A549 (lung carcinoma). Nature of the data set: sulforhodamine B cell cytotoxicity assay, A549. Format: cell-based. Particulars: Homo sapiens, Table 2, SRB assay, 48 h of exposure. Here is the method:
as §1

The test system of data set [3] is MCF-7 (breast adenocarcinoma). As to the kind of experiment: sulforhodamine B cell cytotoxicity assay, MCF-7. In kind it is cell-based. The note with it: Homo sapiens, MCF7; Table 2; SRB assay, 48 h of exposure. Here is the method:
as §1

The test system of data set [4] is C33A (cervical carcinoma). As to the kind of experiment: sulforhodamine B cell cytotoxicity assay, C33A. Format: cell-based, human. The note with it: Homo sapiens, C-33-A, SRB assay, 48 h of exposure. How it is done:
as §1

Data set [5] deals with HeLa Human cervical cancer cells. Nature of the data set: human tumor xenograft in SCID mice, tumor growth. In kind it is in vivo. Particulars: ADR 2 mg/kg I.V. Q7dx3. How it is done:
(§2) The in vivo efficacy studies were performed using human tumor xenografts in SCID mice. Human cervical cancer cells (HeLa) were injected subcutaneously (1×10^7 cells in 100 μl HBSS medium) on the right flank of each mouse. Tumor bearing mice were divided randomly into treatment groups and the treatment schedules began on day 7 of the xenograft. The test compound (S009-0131) was administered orally to each mouse at a daily dose of 100 mg/kg body weight, for 15 days. The standard anti-cancer drug Adriamycin (ADR) was used as ‘positive’ control and given to each mouse as an i.v. dose of 2 mg/kg body weight, Q7d×3 ([…]). The group of vehicle treated animals served as ‘negative’ control.
(§3) The tumor volume, body weight and signs of overt toxicity were monitored and recorded for the entire duration of the experiment (60 days). Tumor volumes were calculated using the formula (a×b2)/2, where a, b are two longest perpendicular diameters. Tumor growth was expressed in terms of relative tumor volume (RTV) which is the ratio of tumor volume on a particular day to the tumor volume on day 1 of the study. Tumor growth inhibition index (T/C) was calculated as follows: T/C=Average RTV of test group mice/Average RTV of control group mice.

Data set [6] is described as follows: animal weight and overt toxicity in the xenograft study. Format: in vivo, SCID mice. The note with it: ADR 2 mg/kg I.V. Q7dx3. Here is the method: as §2, §3
The mark [7] stands for this setting: Table 2, SRB assay, read-out: IC50 NIH3T3 (Non-cancer, fibroblast).
Setting [8] is: Table 2, read-out: IC50 C33A (Cervical).
Where [9] appears, read: Table 1, SRB assay, read-out: IC50 NIH3T3 (mouse fibroblast).
Setting [10] is: Table 1, read-out: IC50 C33A (cervical cancer).

This note sets out measurements from patent US8815940B2, “Coumarin-chalcones as anticancer agents” (Council of Scientific & Industrial Research, priority 2010, dated 2014).

Like-named read-outs stand apart in the source and are kept apart here.

For `Cc1ccc(C(=O)/C=C/c2cc(C(C)(C)C)c3oc(=O)c(C(=O)O)cc3c2)cc1` [Example-9, (E)-8-tert-butyl-2-oxo-6-(3-oxo-3-p-tolylprop-1-enyl)-2H-chromene-3-carboxylic Acid], the melting point fell in the range of 185 to 186 °C.

As to `CCOC(=O)c1cc2cc(C=CC(=O)c3ccc(Cl)cc3)cc(C(C)CC)c2oc1=O` (centres unmarked) [Example S009-0135, Ethyl 8-sec-butyl-6-(3-(4-chlorophenyl)-3-oxoprop-1-enyl)-2-oxo-2H-chromene-3-carboxylate], the IC50 in data set [1] is 14.3 µM; in data set [2] (setting [7]), 38.4 µM; with A549 (lung carcinoma), 12.8 µM; in data set [3], 11.1 µM; in data set [4] (setting [8]), 4.54 µM.

Take `CCC(C)c1cc(/C=C/C(=O)c2ccc(C)cc2)cc2cc(C(=O)N(CC)CC)c(=O)oc12` (centres unmarked) [Example S010-1996, (E)-8-sec-butyl-N,N-diethyl-2-oxo-6-(3-oxo-3-p-tolylprop-1-enyl)-2H-chromene-3-carboxamide]: the melting point is 146 to 147 °C. This compound displayed an IC50 in data set [1] of 3.55 µM. Moreover, in data set [2] (setting [7]), the 50% inhibitory concentration (IC50) is greater than 150 µM. Also, the IC50 in the data set on A549 (lung carcinoma) came out at 3.77 µM. In data set [3], this compound yielded an IC50 of less than 7.01 µM. Besides, the IC50 in data set [4] (setting [8]) was 3.12 µM.

Compound `CCN(CC)C(=O)c1cc2cc(/C=C/C(=O)c3ccc(C)cc3)cc(C(C)(C)C)c2oc1=O` [Example S010-1992, (E)-8-tert-butyl-N,N-diethyl-2-oxo-6-(3-oxo-3-p-tolylprop-1-enyl)-2H-chromene-3-carboxamide] registered a melting point of 170 to 171 °C. The compound further returned an IC50 in data set [1] of 2.02 µM. The IC50 in data set [2] (setting [7]) was greater than 150 µM. The compound further yielded an IC50 in the data set on A549 (lung carcinoma) of 1.5 µM. The compound also registered an IC50 in data set [3] of less than 7.01 µM. In addition, the 50% inhibitory concentration (IC50) in data set [4] (setting [8]) came out at 1.53 µM.

Compound `CCOC(=O)c1cc2cc(C=O)cc(C(C)CC)c2oc1=O` (centres unmarked) [Example S009-0139, Ethyl 8-sec-butyl-6-formyl-2-oxo-2H-chromene-3-carboxylate] registered a melting point of 89 to 90 °C. The 50% inhibitory concentration (IC50) in data set [1] came out at 132 µM. Moreover, in data set [2] (setting [9]), the IC50 is greater than 150 µM. Moreover, the half-inhibitory concentration (IC50) in data set [2] (setting [7]) was greater than 150 µM. Moreover, in the data set with A549 (lung carcinoma), the IC50 turned out to be 147 µM. Moreover, the midpoint of inhibition in data set [3], the IC50, lay at 113 µM. For the same compound, the IC50 in data set [4] (setting [10]) is 64.3 µM. Besides, in data set [4] (setting [8]), the IC50 is 64.3 µM.

For the compound `CCC(C)c1cc(/C=C/C(=O)c2cc(OC)c(OC)c(OC)c2)cc2cc(C(=O)OC)c(=O)oc12` (centres unmarked) [Example S010-2001, (E)-methyl 8-sec-butyl-2-oxo-6-(3-oxo-3-(3,4,5-trimethoxyphenyl)prop-1-enyl)-2H-chromene-3-carboxylate], the melting point fell in the range of 138 to 139 °C. This compound had an IC50 in data set [1] of 3.1 µM. Moreover, the IC50 in data set [2] (setting [7]) was greater than 150 µM. In the data set on A549 (lung carcinoma), this compound registered an IC50 of 3.68 µM. The IC50 in data set [3] was 10.2 µM. The IC50 in data set [4] (setting [8]) was found to be 2.56 µM.

As to `COc1cccc2c1C(=O)c1c(O)c3c(c(O)c1C2=O)C[C@@](O)(C(=O)CO)C[C@@H]3O[C@H]1C[C@H](N)[C@H](O)[C@H](C)O1` [Doxorubicin, reference compound], the “RTV (relative tumor volume)” value worked out at 1 in data set [5] (day 1); 0.69 in data set [5] (day 5); 0.72 in data set [5] (day 9); 0.92 in data set [5] (day 12); 1.39 in data set [5] (day 15); 1.65 in data set [5] (day 19). Moreover, the “RTV (relative tumor volume)” value in data set [5] (day 22) came out at 3.52; in data set [5] (day 25), 3.84; in data set [5] (day 29), 4.60; in data set [5] (day 33) it was 4.69. For the same compound, the “T/C (tumor growth inhibition index)” value came to 1 in data set [5] (day 1); 0.53 in data set [5] (day 5); 0.44 in data set [5] (day 9); 0.47 in data set [5] (day 12); 0.43 in data set [5] (day 15); 0.45 in data set [5] (day 19). Also, the “T/C (tumor growth inhibition index)” value in data set [5] (day 22) amounted to 0.68; in data set [5] (day 25) it was 0.62; in data set [5] (day 29), 0.63; in data set [5] (day 33) it was 0.47; in data set [5] (day 37), 0.58; in data set [5] (day 41), 0.49. Also, the “T/C (tumor growth inhibition index)” value in data set [5] (day 44) and in data set [5] (day 51) was 0.43 each time. Further, the IC50 in data set [1] was determined as 0.22 µM; with A549 (lung carcinoma) it was 0.52 µM; in data set [3] it was 0.61 µM; in data set [4] (setting [8]), 0.82 µM. Besides, the “Average Animal weight” value worked out at 20.7 grams in data set [6] (day 1); 20.9 grams in data set [6] (day 5); 20.6 grams in data set [6] (day 9); 20.3 grams in data set [6] (day 12); 19.6 grams in data set [6] (day 15); 18.3 grams in data set [6] (day 19). Besides, the “Average Animal weight” value amounted to 19.7 grams in data set [6] (day 22); 19.9 grams in data set [6] (day 25); 20.4 grams in data set [6] (day 29); 20.6 grams in data set [6] (day 33); 24.8 grams in data set [6] (day 37); 21.8 grams in data set [6] (day 41). Also, the “Average Animal weight” value turned out to be 22.1 grams in data set [6] (day 44) and 21.2 grams in data set [6] (day 51).

As for `CCC(C)c1cc(/C=C/C(=O)c2ccc(C)cc2)cc2cc(C(=O)NC)c(=O)oc12` (centres unmarked) [Example S010-1994, (E)-8-sec-butyl-N-methyl-2-oxo-6-(3-oxo-3-p-tolylprop-1-enyl)-2H-chromene-3-carboxamide], the melting point was in the range of 215 to 216 °C.

Consider `CCC(C)c1cc(C=CC(=O)c2ccc(Cl)cc2)cc2cc(C(=O)OC)c(=O)oc12` (centres unmarked) [Example S009-0136, Methyl 8-sec-butyl-6-(3-(4-chlorophenyl)-3-oxoprop-1-enyl)-2-oxo-2H-chromene-3-carboxylate], for which the melting point fell in the range of 145 to 146 °C. The same compound showed an IC50 in data set [1] of 28.2 µM. For the same compound, the IC50 in data set [2] (setting [7]) came out at 42.4 µM. For the same compound, the IC50 in the data set with A549 (lung carcinoma) is 16.7 µM. The compound further registered an IC50 in data set [3] of 10.8 µM. In data set [4] (setting [8]), the IC50 turned out to be 5.9 µM.

In the case of `CCOC(=O)c1cc2cc(/C=C/C(=O)c3cc(OC)c(OC)c(OC)c3)cc(C(C)CC)c2oc1=O` (centres unmarked) [Example S010-2000, (E)-ethyl 8-sec-butyl-2-oxo-6-(3-oxo-3-(3,4,5-trimethoxyphenyl)prop-1-enyl)-2H-chromene-3-carboxylate], the melting point lay in the range of 128 to 129 °C. The IC50 in data set [1] amounted to 9.36 µM. In addition, in data set [2] (setting [7]), the IC50 is greater than 150 µM. Besides, in the data set with A549 (lung carcinoma), the IC50 came to 11.6 µM. In data set [3], this compound gave an IC50 of 11.5 µM. The IC50 in data set [4] (setting [8]) is 5.72 µM.

For `CCOC(=O)c1cc2cc(C=CC(=O)c3ccccc3)cc(C(C)CC)c2oc1=O` (centres unmarked) [Example S009-0132, Ethyl 8-sec-butyl-2-oxo-6-(3-oxo-3-phenylprop-1-enyl)-2H-chromene-3-carboxylate], the melting point lay in the range of 155 to 156 °C. Also, the IC50 in data set [1] was found to be 10.5 µM. For the same compound, the IC50 in data set [2] (setting [7]) is greater than 150 µM. Moreover, 12.9 µM corresponded to half-maximal inhibition in the data set on A549 (lung carcinoma) (IC50). Besides, in data set [3], inhibition was half-maximal at 88.1 µM (IC50). For the same compound, the IC50 in data set [4] (setting [8]) was determined as 8.12 µM.

Consider `CCC(C)c1cc(/C=C/C(=O)c2ccc(C)cc2)cc(C=O)c1O` (centres unmarked) [Example S008-0392, (E)-3-sec-butyl-2-hydroxy-5-(3-oxo-3-p-tolylprop-1-enyl)benzaldehyde], for which the IC50 in data set [2] (setting [9]) is 129 µM; in data set [4] (setting [10]) it was 10.2 µM.
